Biological target: KCNQ2-R213A/KCNQ3-R242A (Homo sapiens, UniProt O43525+O43526, R213A/R242A)
Experiment: TEVC of RA/RA mutant KCNQ2/3
Assay type: cell-based
Settings: GABA up to 1 mM
From the text: We generated cRNA transcripts encoding human KCNQ1, KCNQ2, KCNQ3, KCNQ4, KCNQ5 or GLRA1 (NM_001146040) (GenScript, Piscataway, NJ, USA) by in vitro transcription using the T7 polymerase mMessage mMachine kit (Thermo Fisher Scientific), after vector linearization, from cDNA sub-cloned into plasmids incorporating Xenopus laevis β-globin 5′ and 3′ UTRs flanking the coding region to enhance translation and cRNA stability. We quantified cRNA by spectrophotometry. […] We injected defolliculated stage V and VI Xenopus laevis oocytes (Ecocyte Bioscience, Austin, TX and Xenoocyte, Dexter, MI) with KCNQ channel α subunit (5-20 ng) or GLRA1 (20 ng) cRNAs. We incubated the oocytes at 16 °C in Barth’s saline solution (Ecocyte Bioscience) containing penicillin and streptomycin, with daily washing, for 2–5 days prior to two-electrode voltage-clamp (TEVC) recording.
For recording, oocytes were placed in a small-volume oocyte bath (Warner) and viewed them with a dissection microscope. […] Currents were recorded in response to voltage pulses between −120 or −80 mV and + 40 mV at 20 mV intervals from a holding potential of −80 mV, to yield current-voltage relationships, current magnitude, and for quantifying activation rate. We analyzed data using Clampfit (Molecular Devices) and Graphpad Prism software (GraphPad, San Diego, CA, USA); values are stated as mean ± SEM. […]

## CS(=O)(=O)N(CC(=O)O)c1cccc(F)c1 [3FMSG]
  activation / sensitivity of RA/RA mutant KCNQ2/3: larger reduction in sensitivity

Source: article PMC6825221, “In silico re-engineering of a neurotransmitter to activate KCNQ potassium channels in an isoform-specific manner” (Communications Biology, 2019)
